In US11738072B2, “Tumor vaccine and uses thereof” (WestVac Biopharma Co., Ltd., priority 2017, dated 2023):

What was measured:
CT26 cells = assay: Mitochondrial membrane potential by TMRM, flow cytometry; format: cell-based, mouse; conditions: CT26, 15-24 h
Procedure: (§1) (1) Inoculation of tumor cells in plates: A549 cells and CT26 cells in the logarithmic growth phase were prepared into a cell suspension respectively, inoculated into a 6-well plate as per 1×10^5 cells/well, 2 ml of medium was added to each well, and cultured overnight in a 5% CO2 incubator at 37° C.
(§2) (2) Different samples added to act on tumor cells: the pMVA-1 plasmid, the DOTAP cationic lipid and the pMVA-1/DOTAP complex were added to the tumor cells cultured in Step (1) respectively, and incubated at 37° C. for 15 h, 18 h, 21 h and 24 h.
(§3) (3) Preparation of TMRM dyeing working fluid (made by Life Technologies): the TMRM mother liquor was diluted with PBS at a ratio of 1:100000 to obtain the TMRM dyeing working fluid. […]
(§4) (5) The tumor cells in Step (4) were collected and treated with different samples for different times, and the tumor cells with mitochondrial membrane potential changes were analyzed by flow cytometry.
(§5) As a potentiometric fluorescence probe, tetramethylrhodamine methyl ester (TMRM) entered the cells and was cleaved by cell lactonase to produce tetramethylrhodamine, indicating strong fluorescence after they had entered mitochondria. […] Therefore, the open state of mitochondrial membrane channel pores can be verified by testing the changes of fluorescence intensity in mitochondria of tumor cells.

A549 cells = assay: as above; format: cell-based; conditions: A549, 15-24 h
Procedure: as §1, §2, §3, §4, §5

[1] = test system: bone marrow-derived dendritic cells (BMDC); assay: FITC-Dextran uptake by BMDC, flow cytometry; format: cell-based, mouse; conditions: BMDC stimulated 24 h by CT26 cells treated with sample
Procedure: a. Bone marrow cells were obtained from the femur and tibia of mouse, sieved and collected in a centrifuge tube, centrifuged at 280 g and at room temperature for 5 min, and the supernatant was discarded.
b. 10 ml of red cell lysate was added to the cells described in Step a, standing for 3 min at room temperature, centrifuged at 280 g and at room temperature for 5 min, and the supernatant was discarded.
c. The bone marrow cells described in Step b were washed twice with PRMI-1640 medium, centrifuged at 280 g and at room temperature for 10 min, live cell count was carried out, the cell concentration was adjusted to 1×10^6 cells/ml by RPMI-1640 complete medium.
d. In Step c, the recombinant mouse GM-CS with a final concentration of 10 ng/ml was added and 4 ml/well cell suspension was inoculated into a 6-well plate, and cultured in a 37° C., 5% CO2 incubator. When cell colonies grew on the bottom of the plate, the medium was pipetted, washed once with the medium, and 1640 complete medium containing 10 ng/ml of GM-CSF was added to each well.
e. […]
d. Test and analysis of fluorescence intensity of BMDC based on flow cytometry.

lysosomes in A549 cells = assay: Lysosomal acidity gradient by Lysotracker Red / YOYO1 probes; format: cell-based; conditions: flow cytometry, 1 h, 3 h, 6 h and 9 h
Procedure: a. Preparation of YOYO1 working fluid: the YOYO1 stock solution was diluted with 1640 serum-free medium at the volume ratio of 1:200;
b. The pMVA-1 plasmid was added to the YOYO1 working fluid prepared in the Step (1) according to a volume ratio of 1:40, and incubated at 37° C. for 1 h.
a. The YOYO1 fluorescent labeled pMVA-1 plasmid prepared in Step 1 was mixed with the DOTAP cationic lipid to form a complex;
b. The YOYO1 fluorescently labeled pMVA-1/DOTAP complex prepared in Step a was added to A549 cells, followed by making two control groups i.e. YOYO1 fluorescently labeled pMVA-1 plasmid group (PMVA) and DOTAP cationic lipid group (DOTAP), and blank control group containing cell culture fluid only.
(1) Preparation of Lysotracher Red working fluid: the Lysotracher Red stock solution was added to the cell culture fluid at a volume ratio of 1:20000 and incubated at 37° C.
a. The A549 cell culture fluid in Step 1 was removed, the Lysotracker Red staining working fluid prepared in Step (1) was added to the cells, and incubated at 37° C. for 1 h; […]
c. A549 cells in Step b were collected and the number of fluorescent cells were quantitatively tested by flow cytometry.

lysosomes of A549 cells = assay: Lysosomal membrane permeability by CathepsinB intracellular localization; format: cell-based; conditions: 3 h, immunofluorescence, confocal microscope
Procedure: (1) Inoculation of A549 cells in plates: round sterilized cell slides were placed at the bottom of a 6-well plate, inoculated A549 cells into the 6-well plate as per 1×10^5 cells/well, 2 ml of medium was added to each well, and incubated overnight.
(2) The medium (blank control group), pMVA-1 plasmid (control group PMVA), DOTAP cationic lipid (control group DOTAP) and pMVA-1/DOTAP complex (experimental group PMVA-DOTAP) were added to A549 cells cultured in the Step (1), and incubated at 37° C. for 3 h.
(3) A549 cells treated by different groups in Step (2) were washed twice with PBS, stabilized with ice methanol for 3 min, washed twice with PBS, and sealed with PBST containing 0.3% Triton of 5% FBS for 20 min.
(4) The cells in Step (3) were washed once with PBS, and the human CathepsinB antibody (made by Abcam) was diluted at a ratio of 1:300. Incubating at room temperature for 1 h, washing with PBS three times for 5 minutes each time, adding 1:1000 fluorescent secondary antibody, and incubating at room temperature for 1 h in the dark.
(5) The cells in Step (4) were washed with PBS for three times, the films were washed with ultrapure water to remove excess water, and sealed with anti-fluorescence quencher, then cured for 6 h. Fluorescent cells were observed under a confocal microscope and the images were saved.

In the case of `CCCCCCCC/C=C\CCCCCCCC(=O)OCC(C[N+](C)(C)C)OC(=O)CCCCCCC/C=C\CCCCCCCC` (centres unmarked) [DOTAP, 1,2-dioleoyl-3-trimethylammonium-propane], the mitochondrial membrane potential (CT26 cells) was “did not change significantly”, the mitochondrial membrane potential (A549 cells) was “did not change significantly” and the “FITC average fluorescence intensity of CD11c positive DC” value [1] was “decreased significantly”. The “Lysotracker Red fluorescence intensity” value (lysosomes in A549 cells) was “did not change significantly” and the “distribution of Cathepsin B in A549 cells” value (lysosomes of A549 cells) was “distributed in dots”.
